# Measured values taken from patent US10471054B2, “CDK1 inhibitors of acetyl chrysin mannich base derivatives, synthesis and use thereof” (priority 2016, dated 2019).
# Read-outs that look alike come from different tables or passages of the source.
# Tests used:
# MCF-7 = experiment: Hoechst 33258 fluorescence staining, apoptosis; format: cell-based; conditions: 0, 5, 10, 20 μM for 24 h
# Procedure: Hoechst 33258 is an active fluorescent dye with DNA specific binding, which is mainly combined with base area of DNA, which emits blue fluorescence when stimulated by ultraviolet light. The living cells emit uniform fluorescence, the apoptotic cells are bright blue fluorescence due to their chromatin fixation, dense and concentrated nuclei.
# MCF-7 was treated with 0, 5, 10, 20 μM of CH-f and CH-j for 24 h, Hoechst 33258 fluorescence staining, and cell morphological changes were shown in FIG. 3-1. […] CH-f and CH-j are completely different from the cytotoxic drug HCPT, which appears to be apoptotic at low doses and necrotic at high doses in BGC-823.
# FIG. 3-1 Hoechst 33258 staining results for MCF-7.
# pKa = format: physicochemical
# Procedure: CH-j is pKa 5.3, log P 1.63 in Octanol/Water at 37° C. […] (BA-j 77m/ml). CH-j belongs to BCS II (low solubility, high permeability) and solubility presents the pH dependence. […] CH-j is a pH dependent fast release. […] It is speculated that CH-j has more appropriate log P and solubility with more likely entering tissue cells than others solubility acetyl Chrysin Mannich base derivatives.
# (about 20 times BA-f 277 μg/ml) and 564 μg/ml in water at 37° C. (about 1000 times BA-f 0.53m/ml). CH-f is BCS I (high solubility and permeability) and solubility presents the pH dependence. It is speculated that CH-f has more appropriate log P and solubility with entering systemic (blood system and tissue cells) than others solubility acetyl Chrysin Mannich base derivatives.
# [1] = Pharmacokinetics by oral in monkey (urine drug concentration-time curve); format: in vivo; conditions: for Tmax: po
# Procedure: Chromatographic conditions and the system applies: with C18 chromatographic column (acid the tall secretory effect, 5 μm, 4.6*150 mm), in acetonitrile-methanol-water-mesylate (25:20:55:0.15) as mobile phase, detection UV 283 nm, the velocity 1 ml/min, and the sample volume 20 μl. The theoretical plate number is not less than 2000 according to CH-j peak.
# Sample solution: after the macaques were drugged, the catheter was inserted. The urine by oral CH-j 5 mg/kg is collected, added the methanol at 1:4 (v:v), centrifuge and remove the liquid to measure. Control solution is CH-j methanol solution 5 μg/ml. The log P of CH-j is larger, the fat solubility strong, and absorption distribution in the body very rapid, the urine drug concentration-time curve consistent with the typical two-compartment model. Tmax1, 1.3 h, Cmax1 is […]. […] The apparent distribution volume (Vd) 42 L, mainly distributed in body fluid (BA-j Vd 12.6 L, mainly distributed in blood. See Fitoterapia, 2015, 107: 36-34)
# FIG. 5: The concentration of urine drug concentration-time curve in monkey (n=6) by CH-j oral 5 mg/kg, X-coordinate is oral CH-j time (h) and Y-coordinate is the concentration of CH-j (μM).
# [2] = oral 5 mg/kg, monkey, urine drug concentration
# [3] = oral, monkey (n = 6), 3 mg/kg in Table 4, 5 mg/kg in text
smiles,measurement,setting,value
"CC(=O)c1c(O)c(CN2CCC(O)CC2)c2oc(-c3ccccc3)cc(=O)c2c1O [CH-j, 6-Acetyl-5,7-dihydroxy-8-(4-hydroxy-piperidin-1-ylmethyl)-2-phenyl-chromen-4-one]",Apoptosis by Hoechst 33258 staining,MCF-7,apoptosis cell percentage in dose dependent increase
same,pKa,pKa,5.3
same,"Maximum drug concentration, times higher than Chrysin","[1]; monkey, in vivo",about 40 times
same,Cmax1,[1]; [2],26.4 µM
same,"Cmax2, redistributive period",[1]; [2],13.2 µM
same,V d,[1]; [3],42 L
same,t1/2β,[1]; [3],6.2 h
same,Tmax,"[1]; rhesus, monkey, urine, monkey (n = 6), 3 mg/kg in Table 4, 5 mg/kg in text, read-out: T max (Tmax1)",1.3 h
same,Tmax,"[1]; rhesus, monkey, urine, monkey (n = 6), 3 mg/kg in Table 4, 5 mg/kg in text, read-out: T max, redistributive period (Tmax2)",9 h
same,concentration at 24 h,"[1]; rhesus, urine, oral 5 mg/kg, monkey",< 3 µM
same,Cmax,"[1]; rhesus, urine, oral, monkey (n = 6), 3 mg/kg in Table 4, 5 mg/kg in text",26.4 µM
